molecular target: T1, androgen receptor (AR) (Homo sapiens, UniProt P10275); test: Degradation of androgen receptor (AR) protein in VCaP cells by Western blot; format: cell-based; settings: FIG. 1
T1 sequence (P10275 1-920): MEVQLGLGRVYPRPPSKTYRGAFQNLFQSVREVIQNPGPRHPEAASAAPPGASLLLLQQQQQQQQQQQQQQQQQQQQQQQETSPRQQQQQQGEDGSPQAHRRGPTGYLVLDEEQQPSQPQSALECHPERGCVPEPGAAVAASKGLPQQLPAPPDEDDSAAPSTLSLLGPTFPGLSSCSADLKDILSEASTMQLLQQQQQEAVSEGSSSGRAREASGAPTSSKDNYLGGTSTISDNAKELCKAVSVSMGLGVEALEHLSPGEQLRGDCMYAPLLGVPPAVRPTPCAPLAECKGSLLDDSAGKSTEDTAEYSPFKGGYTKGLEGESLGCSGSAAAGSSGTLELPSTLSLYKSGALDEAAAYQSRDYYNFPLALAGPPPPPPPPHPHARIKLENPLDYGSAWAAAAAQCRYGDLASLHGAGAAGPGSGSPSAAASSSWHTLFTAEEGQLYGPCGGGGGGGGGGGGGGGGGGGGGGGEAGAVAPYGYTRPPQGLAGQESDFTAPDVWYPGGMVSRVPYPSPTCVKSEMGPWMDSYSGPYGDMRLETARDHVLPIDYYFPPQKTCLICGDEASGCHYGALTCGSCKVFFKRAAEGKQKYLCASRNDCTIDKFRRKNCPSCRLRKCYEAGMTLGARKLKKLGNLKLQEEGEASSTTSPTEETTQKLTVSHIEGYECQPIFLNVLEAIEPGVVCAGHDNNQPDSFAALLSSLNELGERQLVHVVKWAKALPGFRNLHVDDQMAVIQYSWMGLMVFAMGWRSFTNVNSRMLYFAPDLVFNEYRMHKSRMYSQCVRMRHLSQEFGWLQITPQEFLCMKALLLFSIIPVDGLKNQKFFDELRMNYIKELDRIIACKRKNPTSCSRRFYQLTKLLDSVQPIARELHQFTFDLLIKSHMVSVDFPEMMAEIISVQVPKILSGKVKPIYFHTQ
In short: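 VCaP cells (5×10^5/well) were seeded overnight, then treated in duplicate for 16 h with compound in 0.1% DMSO final. Lysates (30 μg protein) were immunoblotted for AR (D6F11) with β-actin as loading control, detected by ECL chemiluminescence.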

Row | degradation activity on AR at different concentrations | SMILES
1 | concentration-dependent manner | N#Cc1ccc(O[C@H]2CC[C@H](NC(=O)c3cnc(N4CCN(C[C@@H]5[C@H]6CN(c7cc8c(cc7F)C(=O)N(C7CCC(=O)NC7=O)C8=O)C[C@@H]56)CC4)cn3)CC2)cc1Cl (stereo partly shown) [Compound 99]

same assay, conditions: percentage of degraded AR at 100 nM, VCaP cells, 16 h

Row | inhibition at 0.1 µM | SMILES
2 | 50 to 79% | N#Cc1ccc(O[C@H]2CC[C@H](NC(=O)c3cnc(N4C[C@@H]5[C@@H](CN6CCN(c7cc8c(cc7F)C(=O)N(C7CCC(=O)NC7=O)C8=O)CC6)[C@@H]5C4)cn3)CC2)cc1Cl (stereo partly drawn) [Compound 176, N-((1r,4R)-4-(3-chloro-4-cyanophenoxy)cyclohexyl)-5-((1R,5S,6S)-6-((4-(2-(2,6-dioxopiperidin-3-yl)-6-fluoro-1,3-dioxoisoindolin-5-yl)piperazin-1-yl)methyl)-3-azabicyclo[3.1.0]hexan-3-yl)pyrazine-2-carboxamide]
3 | 25 to 49% | N#Cc1ccc(O[C@H]2CC[C@H](NC(=O)c3cnc(N4CCC(CN5CC6CN(c7cc8c(cc7F)C(=O)N(C7CCC(=O)NC7=O)C8=O)CC6C5)CC4)nc3)CC2)cc1Cl (stereo partly shown) [Compound 257, N-((1r,4r)-4-(3-chloro-4-cyanophenoxy)cyclohexyl)-2-(4-((5-(2-(2,6-dioxopiperidin-3-yl)-6-fluoro-1,3-dioxoisoindolin-5-yl)Hexahydropyrrolo[3,4-c]pyrrol-2(1H)-yl)methyl)piperidin-1-yl)pyrimidine-5-carboxamide]
4 | < 25% | N#Cc1ccc(OC2CC3(C2)CN(C(=O)c2ccc(N4CCC(CN5CCN(c6ccc7c(c6)C(=O)N(C6CCC(=O)NC6=O)C7=O)CC5)CC4)nn2)C3)cc1Cl (stereo not shown) [Compound 120, 2-chloro-4-((2-(6-(4-((4-(2-(2,6-dioxopiperidin-3-yl)-1,3-dioxoisoindolin-5-yl)piperazin-1-yl)methyl)piperidin-1-yl)pyridazine-3-carbonyl)-2-azaspiro[3.3]heptan-6-yl)oxy)benzonitrile]
5 | 25 to 49% | N#Cc1ccc(O[C@H]2CC[C@H](NC(=O)c3cnc(N4CC(CN5CC6CN(c7cc8c(cc7F)C(=O)N(C7CCC(=O)NC7=O)C8=O)CC6C5)C4)nc3)CC2)cc1Cl (stereo partly shown) [Compound 140]
6 | < 25% | N#Cc1ccc(O[C@H]2CC[C@H](N3Cc4nc(N5CCC(CN6CCC(Nc7ccc8c(c7)C(=O)N(C7CCC(=O)NC7=O)C8=O)CC6)CC5)ccc4C3=O)CC2)cc1Cl (stereo partly shown) [Compound 173]
7 | > 80% | N#Cc1ccc(O[C@H]2CC[C@H](NC(=O)c3ccc(N4CC5CN(CC6CCN(c7ccc8c(c7)C(=O)N(C7CCC(=O)NC7=O)C8=O)CC6)CC5C4)nn3)CC2)cc1Cl (stereo partly shown) [Compound 260, N-((1r,4r)-4-(3-chloro-4-cyanophenoxy)cyclohexyl)-6-(5-((1-(2-(2,6-dioxopiperidin-3-yl)-1,3-dioxoisoindolin-5-yl)piperidine-4-yl)methyl)hexahydropyrrolo[3,4-c]pyrrol-2(1Ji)-yl)pyridazine-3-carboxamide]
8 | 25 to 49% | N#Cc1ccc(O[C@H]2CC[C@H](NC(=O)c3ccc(N4CCN([C@@H]5C[C@@H]6CN(c7cc8c(cc7F)C(=O)N(C7CCC(=O)NC7=O)C8=O)C[C@@H]6C5)CC4)nn3)CC2)cc1Cl (stereo partly drawn) [Compound 297, N-((1r,4r)-4-(3-chloro-4-cyanophenoxy)cyclohexyl)-6-(4-((3aR,5R,6aS)-2-(2-(2,6-dioxopiperidin-3-yl)-6-fluoro-1,3-dioxoisoindolin-5-yl)octahydrocyclopenta[c]pyrrol-5-yl)piperazin-1-yl)pyridazine-3-formamide]
9 | 50 to 79% | CC1(C)[C@H](Oc2ccc(C#N)c(Cl)c2)C(C)(C)[C@H]1N1Cc2nc(C#C[C@H]3CC[C@H](N4CCN(c5cc6c(cc5F)C(=O)N(C5CCC(=O)NC5=O)C6=O)CC4)CC3)ccc2C1=O (stereo partly shown) [Compound 326]
10 | 25 to 49% | CC1(C)[C@H](Oc2ccc(C#N)c(Cl)c2)C(C)(C)[C@H]1N1Cc2nc(C#CC3CCN(C4CCN(c5cc6c(cc5F)C(=O)N(C5CCC(=O)NC5=O)C6=O)CC4)CC3)ccc2C1=O (stereo partly shown) [Compound 316]
11 | > 80% | N#Cc1ccc(O[C@H]2CC[C@H](NC(=O)c3ccc(N4C[C@H]5C[C@@H](CN6CC7CN(c8cc9c(cc8F)C(=O)N(C8CCC(=O)NC8=O)C9=O)CC7C6)C[C@H]5C4)nn3)CC2)cc1Cl (stereo partly drawn) [Compound 222, N-((1r,4r)-4-(3-chloro-4-cyanophenoxy)cyclohexyl)-6-((3aR,5R, 6aS)-5-((5-(2-(2,6-dioxopiperidin-3-yl)-6-fluoro-1,3-dioxoisoindolin-5-yl)hexahydropyrrolo[3,4-c]pyrrol-2(1H)-yl)methyl)hexahydrocyclopenta[c]pyrrole-2(1H)-yl)pyridazine-3-formamide]
12 | > 80% | N#Cc1ccc(O[C@H]2CC[C@H](NC(=O)c3ccc(N4CC5CN(CC6CCN(c7cc8c(cc7F)C(=O)N(C7CCC(=O)NC7=O)C8=O)CC6)CC5C4)nn3)CC2)cc1Cl (stereo partly shown) [Compound 259, N-((1r,4r)-4-(3-chloro-4-cyanophenoxy)cyclohexyl)-6-(5-((1-(2-(2,6-dioxopiperidin-3-yl)-6-fluoro-1,3-dioxoisoindolin-5-yl)piperidine-4-yl)methyl)hexahydropyrrolo[3,4-c]pyrrol-2(11H)-yl)pyridazine-3-carboxamide]
13 | < 25% | N#Cc1ccc(O[C@H]2C[C@@H]3CN(C(=O)c4ccc(N5CCC(CN6CCN(c7ccc8c(c7)C(=O)N(C7CCC(=O)NC7=O)C8=O)CC6)CC5)nn4)C[C@@H]3C2)cc1Cl (stereo partly drawn) [Compound 175, 2-chloro-4-(((3aR,5s,6aS)-2-(6-(4-((4-(2-(2,6-dioxopiperidin-3-yl)-1,3-dioxoisoindolin-5-yl)piperazin-1-yl)methyl)piperidin-1-yl)pyridazine-3-carbonyl)octahydrocyclopenta[c]pyrrol-5-yl)oxy)benzonitrile]
14 | < 25% | N#Cc1ccc(OC2C[C@@H]3CN(C(=O)c4cnc(N5CCC(CN6CCN(c7ccc8c(c7)C(=O)N(C7CCC(=O)NC7=O)C8=O)CC6)CC5)cn4)C[C@@H]3C2)cc1Cl (stereo partly drawn) [Compound 174, 2-chloro-4-(((3aR,5r,6aS)-2-(5-(4-((4-(2-(2,6-dioxopiperidin-3-yl)-1,3-dioxoisoindolin-5-yl)piperazin-1-yl)methyl)piperidin-1-yl)pyrazine-2-carbonyl)octahydrocyclopenta[c]pyrrol-5-yl)oxy)benzonitrile]

Row | SMILES | inhibition at 0.1 µM
15 | N#Cc1ccc(O[C@H]2CC[C@H](NC(=O)c3cnc(N4CC5CN(C6CCN(c7ccc8c(c7)C(=O)N(C7CCC(=O)NC7=O)C8=O)CC6)CC5C4)cn3)CC2)cc1Cl (stereo partly shown) [Compound 69, N-((1r,4r)-4-(3-chloro-4-cyanophenoxy)cyclohexyl)-5-(5-(1-(2-(2,6-dioxopiperidin-3-yl)-1,3-dioxoisoindolin-5-yl)piperidine-4-yl)hexahydropyrrolo[3,4-c]pyrrol-2(1H)-yl)pyrazine-2-carboxamide] | < 25%
16 | CC1(C)[C@H](Oc2ccc(C#N)c(Cl)c2)C(C)(C)[C@H]1N1Cc2nc(C#CC3CCN(C4CN(c5cc6c(cc5F)C(=O)N(C5CCC(=O)NC5=O)C6=O)C4)CC3)ccc2C1=O (stereo partly shown) [Compound 318, 2-Chloro-4-((1r,3r)-3-(2-((1-(1-(2-(2,6-dioxopiperidin-3-yl)-6-fluoro-1,3-dioxoisoindolin-5-yl)azitidin-3-yl)piperidine-4-yl)ethynyl)-5-oxo-5H-pyrrolino [3,4-b]pyridin-6(7H)-yl)-2,2,4,4-tetramethylcyclobutoxy)benzonitrile] | 50 to 79%
17 | N#Cc1ccc(O[C@H]2CC[C@H](NC(=O)c3ccc(N4CCC(NC5CCN(c6ccc7c(c6)C(=O)N(C6CCC(=O)NC6=O)C7=O)CC5)CC4)cc3)CC2)cc1Cl (stereo partly shown) [Compound 302, N-((1r,4r)-4-(3-chloro-4-cyanophenoxy)cyclohexyl)-4-(4-((1-(2-(2,6-dioxopiperidin-3-yl)-1,3-dioxoisoindolin-5-yl)piperidine-4-yl)amino)piperidin-1-yl)benzamide] | < 25%
18 | N#Cc1ccc(O[C@H]2CC[C@H](NC(=O)c3ccc(N4CC5CN(C6CCN(c7cc8c(cc7F)C(=O)N(C7CCC(=O)NC7=O)C8=O)CC6)CC5C4)nn3)CC2)cc1Cl (stereo partly shown) [Compound 67] | < 25%
19 | N#Cc1ccc(O[C@H]2CC[C@H](NC(=O)c3ccc(N4CCC(N5CCC6(CCN(c7cc8c(cc7F)C(=O)N(C7CCC(=O)NC7=O)C8=O)C6)C5)CC4)nn3)CC2)cc1Cl (stereo partly shown) [Compound 164, N-((1r,4r)-4-(3-chloro-4-cyanophenoxy)cyclohexyl)-6-(4-(7-(2-(2,6-dioxopiperidin-3-yl)-6-fluoro-1,3-dioxoisoindol-5-yl)-2,7-diazaspiro[4.4]nonan-2-yl)piperidin-1-yl)pyridazine-3-formamide] | > 80%
